Measured values reported in the CheMixHub viscosity set.

Assay: xn = mol fraction of the nth substance listed

CCCCOCCO + NCCO
viscosity [mPa·s]
Conditions | 293.15 K | 298.15 K | 303.15 K | 308.15 K | 313.15 K | 318.15 K | 323.15 K
101 kPa, x2 = 0.177 | 4.615 | 3.961 | 3.431 | 2.994 | 2.629 | 2.325 | 2.07
101 kPa, x2 = 0.453 | 8.081 | 6.718 | 5.65 | 4.799 | 4.115 | 3.559 | 3.101
101 kPa, x2 = 0.659 | 12.25 | 9.951 | 8.19 | 6.823 | 5.747 | 4.888 | 4.197
101 kPa, x2 = 0.819 | 16.81 | 13.39 | 10.84 | 8.898 | 7.395 | 6.212 | 5.271
101 kPa, x2 = 0.946 | 21.65 | 17.02 | 13.6 | 11.03 | 9.061 | 7.538 | 6.342
101.3 kPa, x2 = 0.457 | 8.08 | 6.72 | 5.65 | 4.8 | 4.11 | 3.56 | 3.1
101.3 kPa, x2 = 0.664 | 12.25 | 9.95 | 8.19 | 6.82 | 5.75 | 4.89 | 4.2

CCCCNCCO + O
100 kPa, x2 = 0.62
Conditions | viscosity [mPa·s]
293.15 K | 29
303.15 K | 16.7
313.15 K | 10.3
323.15 K | 6.73

CCOS(=O)(=O)[O-].CC[N+](CC)=C(N(C)C)N(C)C + O
viscosity [mPa·s], 100 kPa
Conditions | x1 = 0.0999 | x1 = 0.2003 | x1 = 0.3005 | x1 = 0.4004 | x1 = 0.4989 | x1 = 0.6001 | x1 = 0.7 | x1 = 0.801 | x1 = 0.8982
293.15 K | 12.38 | 25.31 | 39.06 | 53.18 | 68.18 | 85.88 | 107 | 132.6 | 160.6
298.15 K | 10.01 | 19.81 | 29.97 | 40.42 | 51.48 | 64.33 | 79.13 | 97.08 | 116.9
303.15 K | 8.224 | 15.93 | 23.79 | 31.86 | 40.31 | 49.98 | 60.7 | 73.9 | 88.11
308.15 K | 6.765 | 12.88 | 19.09 | 25.43 | 32.02 | 39.28 | 47.26 | 57.08 | 67.41
313.15 K | 5.628 | 10.63 | 15.72 | 20.82 | 26.05 | 31.62 | 37.7 | 45.18 | 53.08
318.15 K | 4.66 | 8.802 | 13.04 | 17.16 | 21.39 | 25.68 | 30.35 | 36.2 | 42.47
323.15 K | 3.828 | 7.374 | 10.99 | 14.3 | 17.61 | 21.15 | 24.97 | 29.66 | 34.73

CC[NH+](C)CC.[Br-] + O
viscosity [mPa·s], 100 kPa
Conditions | 298.15 K | 303.15 K | 308.15 K | 313.15 K | 318.15 K | 323.15 K
x1 = 0.016 | 1.149 | 1.026 | 0.925 | 0.841 | 0.771 | 0.712
x1 = 0.0229 | 1.243 | 1.107 | 0.996 | 0.903 | 0.825 | 0.759
x1 = 0.0355 | 1.458 | 1.295 | 1.162 | 1.051 | 0.955 | 0.873
x1 = 0.0793 | 2.422 | 2.124 | 1.882 | 1.681 | 1.513 | 1.368
x1 = 0.0986 | 3.011 | 2.633 | 2.318 | 2.061 | 1.843 | 1.658
x1 = 0.1267 | 4.05 | 3.504 | 3.07 | 2.707 | 2.389 | 2.142
x1 = 0.1508 | 5.154 | 4.438 | 3.862 | 3.379 | 2.988 | 2.658
x1 = 0.1806 | 6.655 | 5.646 | 4.861 | 4.22 | 3.695 | 3.267
x1 = 0.2148 | 9.109 | 7.787 | 6.643 | 5.74 | 5.002 | 4.39
x1 = 0.2422 | 11.37 | 9.636 | 8.251 | 7.129 | 6.196 | 5.432
x1 = 0.2866 | 15.38 | 12.8 | 10.79 | 9.194 | 7.919 | 6.897
x1 = 0.3332 | 21.46 | 17.54 | 14.61 | 12.29 | 10.49 | 9.032
x1 = 0.4014 | 33.72 | 26.93 | 21.98 | 18.17 | 15.2 | 12.89

C[C@H](N)C(=O)N[C@@H](C)C(=O)O + O
viscosity [mPa·s], 101 kPa
Conditions | x1 = 3.87e-05 | x1 = 7.58e-05 | x1 = 0.000107 | x1 = 0.00015 | x1 = 0.000172 | x1 = 0.0002106 | x1 = 0.0002561 | x1 = 0.0002871 | x1 = 0.0003202 | x1 = 0.0003571
305.15 K | 0.7669 | 0.7674 | 0.7681 | 0.7688 | 0.7719 | 0.7741 | 0.7782 | 0.7795 | 0.7798 | 0.7828
310.15 K | 0.7029 | 0.7032 | 0.7033 | 0.7061 | 0.7067 | 0.7084 | 0.7089 | 0.7115 | 0.7139 | 0.7167
315.15 K | 0.6416 | 0.6452 | 0.6473 | 0.6487 | 0.6499 | 0.6499 | 0.6519 | 0.6548 | 0.6573 | 0.6608
